In this test the test system is genotype A, "Long" strain RSV. Description: RSV-A in vitro cytoprotection assay in HEp-2 cells (ATPlite readout of cell viability). It is filed as cell-based, Human respiratory syncytial virus. To be noted: human respiratory syncytial virus. The method, boiled down:
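HEp-2 cells (8,000/well) given 2-fold compound dilutions in duplicate, then infected with RSV-A Long strain stock; viability read by ATPlite luminescence after 4 days. EC50 derived from cytoprotection; cytotoxicity measured on parallel uninfected plate.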

Where [1] appears, read: HEp-2, HEp-2 cells, genotype A “Long” strain RSV, cytoprotection, read-out: Human RSV-A (“Long” strain) EC50.

Four compounds from patent publication US10759816B2, “Heterocyclic compounds as RSV inhibitors” (Enanta Pharmaceuticals, Inc., priority 2016, dated 2020) can be followed below.

SMILES strings stand for the structures. Read-outs that look alike come from different tables or passages of the source. Bounds are passed on as bounds.

With `COC[C@@H]1CCCN1c1cccc(C(=O)N2CCc3cc(C(=O)Nc4c(C)cccc4F)sc3-c3ccccc32)n1` [Example 505], the EC50 (usually the concentration that produces a half-maximal response) under setting [1] was below 400 nM.

Turning to `COC[C@H]1CCCN1c1cccc(C(=O)N2CCc3cc(C(=O)Nc4c(C)cccc4F)sc3-c3ccccc32)n1` [Example 506], under setting [1], the EC50 was below 400 nM.

Regarding `COC[C@H]1CCN1c1cccc(C(=O)N2CCc3cc(C(=O)Nc4c(C)cccc4F)sc3-c3ccccc32)n1` [Example 507], the EC50 under setting [1] is below 400 nM.

`O=C(Nc1ccccc1F)N[C@H]1N=C(c2ccccc2)c2ccccc2NC1=O` [RSV-604, reference compound] showed an EC50 (HEp-2) of around 2400 nM.
